Values of other authors, collected in patent US20230228654A1, “Blood Sampling Device and Method for PEth Measurement” (CAPITAINER AB, priority 2020, published 2023).

System: PLD
Conditions: Schröck et al, Alcohol 2018; cited from earlier work

Structure (SMILES)	potency as PLD inhibitor
O=C(NCCN1CCC(n2c(=O)[nH]c3ccccc32)CC1)c1cc2cc(F)ccc2[nH]1 [FIPI, 5-fluoro-2-indolyl-deschlorohalopemide]	low potency
O=C(NCCN1CCC(n2c(=O)[nH]c3cc(Cl)ccc32)CC1)c1ccc(F)cc1 [halopemide]	low potency
